For series [1], the system named is HT1080 human fibrosarcoma xenografts. The series is described as follows: In vivo planar fluorescence imaging in HT1080 tumor-bearing mice. Also on record: species or system human xenograft in male NCR nude mice.
Series [2] relates to MMP-3. The following applies: -PLGVR- sequence; cited from earlier work.
In series [3] the test system is MMP-1. The note with it: -PLGVR- sequence; cited from earlier work.
The subject of series [4] is gelatinases. The note with it: -PLGVR- sequence; cited from earlier work.
The test system of series [5] is MMP-7. The note with it: -PLGVR- sequence; cited from earlier work.
Series [6] deals with T1, MMP-2 (Homo sapiens, UniProt P08253).
T1 sequence (P08253 110-660): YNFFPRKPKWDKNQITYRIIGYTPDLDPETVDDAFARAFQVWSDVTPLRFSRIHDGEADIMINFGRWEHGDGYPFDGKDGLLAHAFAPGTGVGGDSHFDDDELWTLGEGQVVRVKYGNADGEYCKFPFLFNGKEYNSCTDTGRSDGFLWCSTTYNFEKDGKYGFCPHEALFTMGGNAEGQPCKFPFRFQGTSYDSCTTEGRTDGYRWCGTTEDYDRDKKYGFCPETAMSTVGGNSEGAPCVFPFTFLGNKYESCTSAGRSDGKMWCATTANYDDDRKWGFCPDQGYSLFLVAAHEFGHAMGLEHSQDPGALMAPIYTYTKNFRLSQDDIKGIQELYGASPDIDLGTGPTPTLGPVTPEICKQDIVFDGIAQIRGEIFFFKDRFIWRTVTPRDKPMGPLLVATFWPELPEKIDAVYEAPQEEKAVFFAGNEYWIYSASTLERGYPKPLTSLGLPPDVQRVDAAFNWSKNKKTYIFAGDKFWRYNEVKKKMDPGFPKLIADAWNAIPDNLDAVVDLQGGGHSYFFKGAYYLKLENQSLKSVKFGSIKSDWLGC
The note with it: cited from earlier work.

Series [7] has as its system MMP-2. The following applies: 450 kDa co-polymer conjugated to -Pro-Leu-Gly~Val-Arg-Gly-; cited from earlier work.
The target of series [8] is T1, MMP-2. The note with it: cited from earlier work. This is another data set of the same source.
In series [9] the test system is MMP-9. The note with it: single-stranded peptide without the GPO triplets; cited from earlier work.
For series [10], the system named is MMP-7. The following applies: cited from earlier work.
The conditions of series [11]: previously determined; cited from earlier work.

Like-named read-outs stand apart in the source and are kept apart here.

Take `CNC(=O)[C@H](Cc1c[nH]c2ccccc12)NC(=O)[C@@H](CC(=O)NO)CC(C)C` [Ilomastat]: in series [1] (mice treated with Ilomastat 1 mg/kg i.p., LS276-THP i.p.), the “time course of tumor fluorescence intensity with inhibitor” value is “a steady increase in fluorescence intensity occurred, indicating incomplete inhibition of tumor-associated MMP-2/MMP-9 activity”.

Turning to -PLGVR- [MMPSense™ 680], the “proteolysis by MMP-3” value in series [2] is listed as “subject to proteolysis”. Also, the “tumor contrast versus contralateral thigh” value in series [1] (24 h post-injection, MMPSense 680 2 nmol i.v., n=3) was “about two-fold”. For the same compound, the “tumor-specific fluorescence enhancement relative to LS276-THP” value in series [1] (MMPSense 680 2 nmol i.v. vs LS276-THP i.p.) was “slightly higher”. In addition, in series [1] (MMPSense 680 2 nmol i.v., n=3, 24 h), the “tumor-specific fluorescence contrast over time” value is listed as “increased over time for 24 h”. The “proteolysis by MMP-1” value in series [3] is on record as “subject to proteolysis”. For the same compound, the proteolysis by gelatinases result in series [4] is given as “subject to proteolysis”. The “proteolysis by MMP-7” value in [5] is on record as “subject to proteolysis”.

As to -Pro-Leu-Gly~Val-Arg-Gly-, in series [6], the Km is 290 µM, the kcat is 4.1 s⁻¹ and the kcat/KM is 14000 M⁻¹ s⁻¹.

Take “-Pro-Leu-Gly~Val-Arg-Gly- [poly-lysine-PEG co-polymer]”: the “in vivo visualization of MMP-2 activity” value in series [7] is reported as “MMP-2 activity in mouse models was visualized”.

As to GPPG~VVGEKGEQ, in series [8] (single-stranded peptide without the GPO triplets), the “hydrolysis by MMP-2” value was “hydrolyzed extremely slowly”. Moreover, the “hydrolysis by MMP-9” value in series [9] is listed as “hydrolyzed extremely slowly”.

As for GVPLSLTMGC, the level of quenching in series [10] (heterologous donor and acceptor pair of near infrared dyes on the N- and C-terminus) was 85%. Further, the “fluorescence increase after digestion with MMP-7” value in [10] (heterologous donor/acceptor NIR dyes on N- and C-terminus) is on record as approximately 7 fold.

For “[(GPO)5GPK((7-methoxycoumarin-4-yl)acetyl)GPPG~VVGEK(2,4-dinitrophenyl)GEQ(GPO)5]3 [fluorogenic THP]”, in [11], the “midpoint transition temperature TM” value is 45 °C. Further, in [8] (MMP-2 hydrolysis), the Km was 4.4 µM, the kcat was 0.062 s⁻¹ and the kcat/KM is reported as 14,000 s^−1M^−1.

The values above are taken from paper PMC3310325 (Bioconjugate Chemistry, 2012).
